Data set [1] is described as follows: Oxygen and CO2 carrying capacity of the PFC. Type of data set: physicochemical. The conditions noted are these: at body temperature. As to the method: Perfluoro(tert-butylcyclohexane) can carry about 43 mL of oxygen per 100 mL of PFC, and 196 mL of CO2 per 100 mL of PFC at body temperature.
Data set [2] is described as follows: Physical properties of perfluoro(tert-butylcyclohexane). Type of data set: physicochemical. From the text:
Physical properties of perfluoro(tert-butylcyclohexane) are as follows:
Oxycyte® is a perfluorocarbon emulsion oxygen carrier. The active ingredient in Oxycyte®, perfluoro(tert-butylcyclohexane) (C10F20, MW˜500), also known as F-tert-butylcyclohexane or “FtBu”, is a saturated alicyclic PFC. […] Oxycyte® can be used in the PFC compositions, methods and uses described herein.
Being that the PFCs are slightly lipophilic at body temperature and would help in the transport of oxygen into and removal of carbon dioxide from, e.g., periocular skin.

As to `FC(F)(F)C(C(F)(F)F)(C(F)(F)F)C1(F)C(F)(F)C(F)(F)C(F)(F)C(F)(F)C1(F)F` [perfluoro(tert-butylcyclohexane)], in data set [1], the CO2 carried is reported as ~196 mL of CO2 per 100 mL of PFC and the oxygen carried entry is “about 43 mL of oxygen per 100 mL of PFC”. In data set [2], the Density was found to be 1.97 g/mL, the “Kinematic Viscosity” value came to 5.378 cP and the water solubility entry is “non-water soluble”. For the same compound, the “Vapor Pressure” value in data set [2] (@ 25° C.) came to 3.8 mmHg. For the same compound, the “Vapor Pressure” value in data set [2] (@ 37° C.) is recorded as 4.4 mmHg. Also, the lipophilicity result in data set [2] (at body temperature) is on record as “only slightly lipophilic”. The lipophilicity result in data set [2] (at room temperature) is recorded as “not lipophilic”. The lipophilicity result in data set [2] (temperature not stated) is “non-lipophilic”.
